Experimental findings from PubChem BioAssay (NCI) are described below.

What all share (assay): NCI tumour cell line growth inhibition, 48 h
In assay [1] the test system is OVCAR-3 ovarian.
Assay [2] deals with MDA-MB-231 breast.
The test system of assay [3] is LOX IMVI melanoma.
Assay [4] concerns SK-MEL-28 melanoma.
For assay [5], the system named is MALME-3M melanoma.
For assay [6], the system named is MOLT-4 leukemia.
Assay [7] has as its system UACC-257 melanoma.
Assay [8] concerns SK-MEL-2 melanoma.
The subject of assay [9] is RXF 393 renal.
The subject of assay [10] is COLO 205 colon.
Assay [11] relates to SF-295 CNS.
For assay [12], the system named is SR leukemia.

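Tested at 5 concentrations; 48 h exposure; 96-well plates; endpoints linearly interpolated, else capped at highest concentration. TGI: total growth inhibition.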 A value given as a limit tells only on which side of the number the result lay.

Consider `CN(C)CCNc1ncnc2nc(-c3ccccc3)c(-c3ccccc3)nc12`, for which the TGI is greater than 100 µM in [1]; greater than 100 µM in assay [2]; greater than 100 µM in [3]; greater than 100 µM in assay [4]; greater than 100 µM in assay [5]; 76 µM in [6]. In addition, the TGI in assay [7], in assay [8], in assay [9] and in assay [10] was greater than 100 µM throughout.
On to `CC(=O)Nc1ccc2cc(C#N)c(=O)[nH]c2n1`, for which the TGI in assay [1], in assay [2], in assay [3], in assay [4], in assay [5] and in assay [6] was greater than 100 µM each time. The TGI in assay [7], in [11], in assay [8], in [9] and in assay [10] was greater than 100 µM throughout.
With `c1ccc(C2(c3cc4ccccc4[nH]3)OCCO2)nc1`, the TGI in [1], in assay [2], in [3], in [4], in assay [5] and in [7] was greater than 100 µM throughout. Moreover, the TGI in [11], in assay [8], in assay [9] and in [10] was greater than 100 µM throughout.
Consider `O=S(=O)(Cc1ccccc1)c1nnc(S(=O)(=O)c2ccc(Cl)cc2)s1`, for which the TGI in assay [1] was 58.6 µM; in assay [2], 91.7 µM; in assay [4] it was 44 µM; in assay [6], greater than 100 µM; in assay [7], 48.8 µM; in [11] it was 54.9 µM. Further, the values for the TGI in assay [8], in assay [9] and in assay [10] were 50.7 µM, 33.8 µM and 36.6 µM, respectively.
Turning to `COC1(OC)CCCCCCCCC(OC)(OC)CCCCCCCC1`, the TGI in [1], in assay [3], in [4], in assay [5], in [7] and in assay [11] was greater than 100 µM each time. For the same molecule, the TGI in [12], in [8], in [9] and in assay [10] was greater than 100 µM in each case.
With `O=[N+]([O-])c1ccc(C2=NOC(c3ccccc3)N2C23CC4CC(CC(C4)C2)C3)cc1` (stereo unspecified), the TGI in [1] is 50.1 µM; in [2] it was greater than 100 µM; in assay [3], 29.3 µM; in assay [4], greater than 100 µM; in [5], 85.5 µM; in assay [6], 37.8 µM. For the same molecule, the TGI in assay [7] is greater than 100 µM; in assay [11] it was 66.6 µM; in assay [8], 37.5 µM; in assay [10], 88.1 µM.
For `O=C1NC(=Nc2ccccc2Cl)N/C1=C\c1c(Cl)cccc1Cl`, the TGI was greater than 100 µM in assay [1]; greater than 100 µM in assay [3]; greater than 100 µM in [4]; greater than 100 µM in assay [5]; greater than 100 µM in assay [6]; 79.8 µM in assay [7]. The TGI in [11] is greater than 100 µM; in [12], 48 µM; in assay [8], greater than 100 µM; in assay [9], 68 µM; in assay [10] it was 56.2 µM.
For `CC(=O)OC[C@@]1(C)[C@@H]2[C@@H]3[C@@]4(CO[C@]3(C)C(=O)[C@@]3(OC(C)=O)C[C@H](C)[C@H](OC(C)=O)[C@@H]3[C@H]4OC(C)=O)[C@H](OC(=O)c3ccccc3)C[C@@H]21`, the TGI in assay [1], in [2], in assay [3], in assay [4], in [5] and in assay [7] was greater than 100 µM each time. Moreover, the TGI in assay [11], in [8], in [9] and in assay [10] was greater than 100 µM throughout.
Regarding `COC(=O)CSc1cc(Cl)c(C)cc1S(=O)(=O)Nc1n[nH]c(N)n1`, the TGI in assay [1], in [3], in [4], in [5], in assay [6] and in [7] was greater than 10 µM in each case. Also, the TGI in assay [11], in assay [12], in [8], in [9] and in assay [10] was greater than 10 µM each time.
For the molecule `C#CCNCC(=O)O`, the TGI in [1], in assay [2], in [4], in assay [5], in [6] and in assay [7] was greater than 100 µM each time. For the same molecule, the TGI in [11], in assay [8], in assay [9] and in [10] was greater than 100 µM throughout.
As for `CCN(CC)CCC(=O)c1ccc(Cl)c(Cl)c1`, the TGI in assay [3] was 30.1 µM; in [4] it was 30.5 µM; in assay [5], 41.7 µM; in assay [6], 82.8 µM; in assay [7] it was greater than 100 µM; in [11] it was greater than 100 µM. Further, the TGI in assay [12] amounted to 64.2 µM; in assay [9], 25.3 µM; in assay [10], 91.4 µM.
